One compound from paper PMC9814779, “A triple farnesoid X receptor and peroxisome proliferator-activated receptor α/δ activator reverses hepatic fibrosis in diet-induced NASH in mice” (Communications Chemistry, 2020) can be followed below.

The target of series [1] is T1, human PPARγ ligand-binding domain (Gal4 chimera) (Homo sapiens, UniProt P37231).
T1 construct: coding for the hinge region and LBD of the canonical isoform of the respective nuclear receptor; expressed in transfected cells; host or cells: HEK293T
T1 sequence (P37231 238-503 limits assumed): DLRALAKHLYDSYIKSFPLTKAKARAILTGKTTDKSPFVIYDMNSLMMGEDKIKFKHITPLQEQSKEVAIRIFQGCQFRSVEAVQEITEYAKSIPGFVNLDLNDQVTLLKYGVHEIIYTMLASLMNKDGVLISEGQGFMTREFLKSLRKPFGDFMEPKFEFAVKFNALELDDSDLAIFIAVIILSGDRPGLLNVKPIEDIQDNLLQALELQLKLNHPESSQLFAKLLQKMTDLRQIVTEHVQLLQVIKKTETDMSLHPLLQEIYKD
In words: Gal4 hybrid reporter gene assay, PPARγ. Format: cell-based. Details: Emax: dose or concentration left out as unconfirmed. For orientation: Reporter assays use an easily measured gene product as a stand-in for the process of interest.

In series [2] the target is T2, human PPARδ ligand-binding domain (Gal4 chimera) (Homo sapiens, UniProt Q03181).
T2 construct: coding for the hinge region and LBD of the canonical isoform of the respective nuclear receptor; expressed in transfected cells; host or cells: HEK293T
T2 sequence (Q03181 211-439 limits assumed): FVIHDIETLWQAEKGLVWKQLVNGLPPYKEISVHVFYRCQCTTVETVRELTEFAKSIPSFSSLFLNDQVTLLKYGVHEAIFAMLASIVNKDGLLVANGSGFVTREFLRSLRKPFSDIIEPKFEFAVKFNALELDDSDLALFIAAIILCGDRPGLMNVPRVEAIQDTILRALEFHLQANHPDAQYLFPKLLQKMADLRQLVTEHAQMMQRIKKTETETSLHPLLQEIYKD
In words: Gal4 hybrid reporter gene assay, PPARδ. The format is cell-based. Details: Emax: dose or concentration left out as unconfirmed.

Series [3] has as its system FXR- and PPAR-regulated genes in mouse liver. In words: Pilot animal experiment: hepatic FXR- and PPAR-regulated mRNA expression. The format is in vivo, mice. Particulars: single oral dose 10 mg/kg. The protocol:
Nine male RjOrl:Swiss (CD-1) mice (38–41 g body weight, purchased from Janvier Labs, France) were used for the pilot in vivo study. […] Food and water were available ad libitum. The in-life phase was performed by the contract research organization Pharmacelsus (Saarbrücken, Germany). All experimental procedures were approved by and conducted in accordance with the regulations of the local Animal Welfare authorities (Landesamt für Gesundheit und Verbraucherschutz, Abteilung Lebensmittel- und Veterinärwesen, Saarbrücken). Six animals received a single oral dose of 10 mg/kg body weight of 41, and three animals received the vehicle. Water containing 1% hydroxypropyl methylcellulose (HPMC)/Tween 80 (99:1) served as vehicle.
Twelve or 18 hours after test compound application, mice were anesthetized under isoflurane and then sacrificed by cervical dislocation for tissue collection. Complete livers were obtained, immediately snap-frozen, and stored at −80 °C until further evaluation.
Liver tissue samples from mice were used to study the mRNA expression of FXR- and PPAR-regulated genes. To homogenize the tissue samples for qRT-PCR analysis, one-third of each liver was placed on a Falcon Cell Strainer with 40-μm pore size (BD Bioscience, Erembodegem, Belgium) in a 50-mL Falcon tube. Every tissue was rinsed with PBS buffer containing 10% FCS, penicillin (100 U/mL), and streptomycin (100 μg/mL) and pressed through the cell strainer until 5 mL cell suspension had been collected. The samples were centrifuged at 1200 rpm for 10 min at 4 °C. […] Two micrograms per sample of the extracted RNA were reverse-transcribed into cDNA using the High-Capacity cDNA Reverse Transcription Kit (4368814, Thermo Fischer Scientific, Inc.) according to the manufacturer’s protocol. mRNA expression was studied by quantitative real-time PCR analysis with a StepOnePlus System (Applied Biosystems) based on the 2^−ΔCT method (Supplementary Fig. 6) or the 2^−ΔΔCT method (Fig. 6) using Power SYBR Green PCR Master Mix (Life Technologies). […]

Structures are written as SMILES.

The term EC50 denotes the concentration that produces a half-maximal response. Consider `CC(C)(C)c1ccc(C(=O)Nc2cccc(CCC(=O)O)c2)c(NC(=O)c2ccc(-c3ccco3)cc2)c1` [compound 41, 3-(3-[4-{tert-Butyl}-2-{4-(2-furyl)}benzamido]phenyl)propanoic acid], for which the EC50 was found to be 2400 ± 100 nM in series [1]; 0.14 ± 0.01 µM in series [2] (EC50 [μM] PPARδ, HEK293T, mean ± SEM, n = 3); 0.141 µM in series [2] (PPARδ EC50, as stated in text). Also, the Emax was 16% in series [1] (read-out: max. rel. act. PPARγ) and 34% in series [2] (read-out: max. rel. act. PPARδ). In series [3], the “adverse effects, behaviour” value is recorded as “no adverse effects”. In addition, the “hepatic expression of BSEP, SHP, LPL, PCK and CRAT, 12 h” value in series [3] (12 h after treatment, vs. vehicle) was “increased”. Also, the “effect on FXR- and PPAR-regulated gene expression in livers, 18 h” value in series [3] (after 18 h) is given as “significantly reduced”.
